21 molecules from patent publication US8153593B2, “Transglutaminase inhibitors and methods of use thereof” (The Board of Trustees of the Leland Stanford Junior …, priority 2003, dated 2012) can be followed below.

One assay has as its target T1, recombinant human tissue transglutaminase (Homo sapiens, UniProt P21980).
T1 construct: made in house
T1 sequence (P21980 1-687): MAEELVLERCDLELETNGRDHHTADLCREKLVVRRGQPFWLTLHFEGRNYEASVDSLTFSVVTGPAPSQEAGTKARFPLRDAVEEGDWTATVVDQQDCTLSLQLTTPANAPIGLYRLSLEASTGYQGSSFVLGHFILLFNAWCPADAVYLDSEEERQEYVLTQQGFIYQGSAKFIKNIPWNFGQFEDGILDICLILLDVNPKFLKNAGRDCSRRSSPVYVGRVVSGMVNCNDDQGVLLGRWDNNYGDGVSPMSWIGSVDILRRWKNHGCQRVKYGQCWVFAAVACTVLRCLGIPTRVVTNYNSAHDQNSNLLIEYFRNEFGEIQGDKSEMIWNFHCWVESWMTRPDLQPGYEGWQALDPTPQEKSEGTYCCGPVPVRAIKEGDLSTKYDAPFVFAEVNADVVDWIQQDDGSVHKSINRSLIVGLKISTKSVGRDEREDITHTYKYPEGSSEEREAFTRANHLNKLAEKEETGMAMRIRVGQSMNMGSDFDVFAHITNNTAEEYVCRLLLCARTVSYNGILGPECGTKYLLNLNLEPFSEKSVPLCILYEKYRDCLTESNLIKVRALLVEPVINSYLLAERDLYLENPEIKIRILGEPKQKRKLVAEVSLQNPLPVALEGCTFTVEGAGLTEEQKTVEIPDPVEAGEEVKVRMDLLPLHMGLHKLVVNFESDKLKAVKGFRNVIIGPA
The assay can be described thus: tTGase inhibition assay, residual activity by glutamate dehydrogenase coupled assay. The conditions noted are these: Table 3. Format: biochemical.
As for `O=C(NCC1CC(Br)=NO1)[C@@H]1CCCN1C(=O)OCc1cnc2ccccc2c1` (stereo in doubt) [ERW1041E, 2-[(3-Bromo-4,5-dihydro-isoxazol-5-ylmethyl)-carbamoyl]-pyrrolidine-1-carboxylic acid quinolin-3-ylmethyl ester], the Ki was 953 µM, the kinh came out at 2.856 min⁻¹ and the kinh/KI is recorded as 3000 /Mmin.
As to `O=C(NC(Cc1c[nH]c2ccc(F)cc12)C(=O)NCC1CC(Br)=NO1)OCc1ccccc1` (stereo not drawn) [ERW903, [1-[(3-Bromo-4,5-dihydro-isoxazol-5-ylmethyl)-carbamoyl]-2-(5-fluoro-1H-indol-3-yl)-ethyl]-carbamic acid benzyl ester], the kinh/KI was <1200 >1200 <1200 <1200 /Mmin.
With `O=C(NC(Cc1ccc(O)cc1)C(=O)NCC1CC(Br)=NO1)OCc1cnc2ccccc2c1` (stereo not drawn) [ERW1041A, [1-[(3-Bromo-4,5-dihydro-isoxazol-5-ylmethyl)-carbamoyl]-2-(4-hydroxy-phenyl)-ethyl]-carbamic acid quinolin-3-ylmethyl ester], the inhibition constant (Ki) was 63.1 µM, the kinh was determined as 0.184 min⁻¹ and the kinh/KI was 2900 /Mmin.
In the same order, the values of `O=C(NC(Cc1c[nH]c2ccc(O)cc12)C(=O)NCC1CC(Br)=NO1)OCc1cnc2ccccc2c1` (stereo not drawn) [ERW1041B, [1-[(3-Bromo-4,5-dihydro-isoxazol-5-ylmethyl)-carbamoyl]-2-(5-hydroxy-1H-indol-3-yl)-ethyl]-carbamic acid quinolin-3-ylmethyl ester] are 1380 µM, 2.57 min⁻¹ and 1850 /Mmin.
On the same counts, the results for `COc1ccc2[nH]cc(CC(NC(=O)OCc3cnc4ccccc4c3)C(=O)NCC3CC(Br)=NO3)c2c1` (stereo not drawn) [ERW1041D, [1-[(3-Bromo-4,5-dihydro-isoxazol-5-ylmethyl)-carbamoyl]-2-(5-methoxy-1H-indol-3-yl)-ethyl]-carbamic acid quinolin-3-ylmethyl ester] are 173 µM, 0.283 min⁻¹ and 1600 /Mmin.
Regarding `O=C(NCC1CC(Br)=NO1)C1Cc2ccccc2N1C(=O)OCc1ccccc1` (stereo not drawn) [ERW1045, 2-[(3-Bromo-4,5-dihydro-isoxazol-5-ylmethyl)-carbamoyl]-2,3-dihydro-indole-1-carboxylic acid benzyl ester], the kinh/KI is <1200 /Mmin.
Take `O=C(NC(Cc1c[nH]c2ccc(F)cc12)C(=O)NCC1CC(Br)=NO1)OCc1cnc2ccccc2c1` (stereo not drawn) [ERW1069, [1-[(3-Bromo-4,5-dihydro-isoxazol-5-ylmethyl)-carbamoyl]-2-(5-fluoro-1H-indol-3-yl)-ethyl]-carbamic acid quinolin-3-ylmethyl ester]: the Ki came out at 4.9 µM, the kinh is 0.1314 min⁻¹ and the kinh/KI is 26800 /Mmin.

The same assay, now with this note: dihydroisoxazoles, Table 1.
On to `COC(=O)[C@H](CCC(=O)NCC1CC(Br)=NO1)NC(=O)OCc1ccccc1` (stereo partly drawn) [Compound 50, (S)-2-Benzyloxycarbonylamino-4-[(3-bromo-4,5-dihydro-isoxazol-5-ylmethyl)-carbamoyl]-butyric acid methyl ester], for which the Ki turned out to be 1600 µM, the kinh is 0.32 min⁻¹ and the kinh/Ki stood at 200 min^−1M^−1.
Turning to `COC(=O)[C@H](CC(=O)NCC1CC(Br)=NO1)NC(=O)OCc1ccccc1` (stereo partly drawn) [Compound 51, (S)-2-Benzyloxycarbonylamino-N-(3-bromo-4,5-dihydro-isoxazol-5-ylmethyl)-succinamic acid methyl ester], the inhibitory constant (Ki) worked out at 870 µM, the kinh is 0.43 min⁻¹ and the kinh/Ki is on record as 490 min^−1M^−1.
On the same counts, the results for `O=C(N[C@@H](Cc1ccccc1)C(=O)OCC1CC(Br)=NO1)OCc1ccccc1` (stereo partly drawn) [Compound 52, (S)-2-Benzyloxycarbonylamino-3-phenyl-propionic acid 3-bromo-4,5-dihydro-isoxazol-5-ylmethyl ester] are 1300 µM, 0.32 min⁻¹ and 230 min^−1M^−1.
In the same order, the values of `C[C@H](NC(=O)OCc1ccccc1)C(=O)NCC1CC(Br)=NO1` (stereo partly drawn) [Compound 53, {(S)-1-[(3-Bromo-4,5-dihydro-isoxazol-5-ylmethyl)-carbamoyl]-ethyl}-carbamic acid benzyl ester] are 910 µM, 0.41 min⁻¹ and 450 min^−1M^−1.
On the same counts, the results for `CC(=O)N[C@@H](Cc1ccccc1)C(=O)NCC1CC(Br)=NO1` (stereo partly drawn) [Compound 54, (S)-2-Acetylamino-N-(3-bromo-4,5-dihydro-isoxazol-5-ylmethyl)-3-phenyl-propionamide] are 2700 µM, 0.60 min⁻¹ and 220 min^−1M^−1.
As to `O=C(N[C@H](Cc1ccccc1)C(=O)NCC1CC(Br)=NO1)OCc1ccccc1` (stereo partly drawn) [Compound 55, {(R)-1-[(3-Bromo-4,5-dihydro-isoxazol-5-ylmethyl)-carbamoyl]-2-phenyl-ethyl}-carbamic acid benzyl ester], the kinh was found to be 0.29 min⁻¹.
As for `O=C(C[C@H](NC(=O)OCc1ccccc1)C(=O)NCC1CC(Br)=NO1)NCc1ccccc1` (stereo partly drawn) [Compound 56, {(S)-2-Benzylcarbamoyl-1-[(3-bromo-4,5-dihydro-isoxazol-5-ylmethyl)-carbamoyl]-ethyl}-carbamic acid benzyl ester], the Ki came to 240 µM, the kinh came to 0.54 min⁻¹ and the kinh/Ki is listed as 2300 min^−1M^−1.
With `O=C(N[C@@H](Cc1c[nH]c2ccccc12)C(=O)NCC1CC(Br)=NO1)OCc1ccccc1` (stereo partly drawn) [Compound 57, [(S)-1-[(3-Bromo-4,5-dihydro-isoxazol-5-ylmethyl)-carbamoyl]-2-(1H-indol-3-yl)-ethyl]-carbamic acid benzyl ester], the kinh is 0.78 min⁻¹ and the kinh/Ki is recorded as 2500 min^−1M^−1.
Turning to `CN(CC1CC(Br)=NO1)C(=O)[C@H](Cc1ccccc1)NC(=O)OCc1ccccc1` (stereo partly drawn) [Compound 58, {(S)-1-[(3-Bromo-4,5-dihydro-isoxazol-5-ylmethyl)-methyl-carbamoyl]-2-phenyl-ethyl}-carbamic acid benzyl ester], the Ki is 260 µM, the kinh amounted to 0.19 min⁻¹ and the kinh/Ki stood at 730 min^−1M^−1.
For the molecule `O=C(NCC1CC(Br)=NO1)Nc1ccccc1` (stereo not drawn) [Compound 60, 1-(3-Bromo-4,5-dihydro-isoxazol-5-ylmethyl)-3-phenyl-urea], the kinh was found to be 0.89 min⁻¹ and the kinh/Ki was determined as 810 min^−1M^−1.
Consider `O=C(NCC1CC(Br)=NO1)Nc1cc(C(F)(F)F)ccc1Cl` (stereo not drawn) [Compound 61, 1-(3-Bromo-4,5-dihydro-isoxazol-5-ylmethyl)-3-(2-chloro-5-trifluoromethyl-phenyl)-urea], for which the kinh was 0.95 min⁻¹ and the kinh/Ki turned out to be 1000 min^−1M^−1.
On the same counts, the results for `O=C(NCC1CC(Br)=NO1)Nc1ccc(Cl)cc1C(F)(F)F` (stereo not drawn) [Compound 62, 1-(3-Bromo-4,5-dihydro-isoxazol-5-ylmethyl)-3-(4-chloro-2-trifluoromethyl-phenyl)-urea] are 1.1 min⁻¹ and 850 min^−1M^−1.
In the same order, the values of `O=C(NCC1CC(Br)=NO1)Nc1ccc(F)cc1` (stereo not drawn) [Compound 63, 1-(3-Bromo-4,5-dihydro-isoxazol-5-ylmethyl)-3-(4-fluoro-phenyl)-urea] are 1.0 min⁻¹ and 770 min^−1M^−1.
On the same counts, the results for `Cc1ccc(C)c(NC(=O)NCC2CC(Br)=NO2)c1` (stereo not drawn) [Compound 64, 1-(3-Bromo-4,5-dihydro-isoxazol-5-ylmethyl)-3-(2,5-dimethyl-phenyl)-urea] are 0.97 min⁻¹ and 1000 min^−1M^−1.

A word on the Ki: it is the dissociation constant of the complex between target and ligand, obtained from inhibition or displacement.
